Reference: US9889155B2, “Enhancer of anti-tumor effect of anti-cancer agent” (priority 2014, dated 2018)
In brackets after ≈: the same amount, converted by molar mass. Counter-ions that a name gives are not always drawn.

How the values were obtained:
[1] = tested on: Human colorectal cancer cells (HCT116); experiment: IC50 of anticancer agents against HCT116 cells with or without sCA particles, cell count at 48 hours (Example 2); format: cell-based
Method: At 48 hours after the addition of each of the anticancer agents, the number of cells was counted, and the IC50 (concentration of 5-fluorouracil that kills 50% of the cancer cells) value was determined.

[2] = tested on: Human colorectal cancer cells (HCT116); experiment: IC50 of 5-fluorouracil against HCT116 cells with or without sCA particles, cell count (Example 1); format: cell-based; conditions: sCA(1) particles added 24 hours before, where used
Method: At 24, 48, and 72 hours after the addition of 5-fluorouracil, the number of cells was counted, and IC50 (concentration of 5-fluorouracil that kills 50% of the cancer cells) values were determined.

[3] = tested on: human colorectal cancer cell line HT29 subcutaneous tumor; experiment: Doxorubicin accumulation in HT29 subcutaneous tumors, IVIS Spectrum fluorescent imaging (Example 7); format: in vivo, BALB/cA nude mice; conditions: HT29 tumor mice; doxorubicin hydrochloride 1.5 mg/mouse via tail vein; tumors removed after 2 hours; sCA(2) particles 3 hours before, where used; FIG. 9
Method: At the time when the tumors reached about 10 mm in diameter, the mice were randomly divided into the two groups shown in Table 5, and each group was administered the drug. After 2 hours from the drug administration, tumors were removed from the mice, and doxorubicin hydrochloride accumulated in the tumors was detected by fluorescent imaging using the IVIS Spectrum. For doxorubicin (DOX), detection of fluorescence wavelength has been confirmed by the IVIS Spectrum (FIG. 8).

[4] = Homo sapiens, HCT-116, 48 hours after addition of anticancer agent, With sCA particles, read-out: IC50 (mean ± SD), With sCA particles
[5] = Homo sapiens, HCT-116, 48 hours after addition of anticancer agent, Without sCA particles, read-out: IC50 (mean ± SD), Without sCA particles
[6] = 48 hours after addition of anticancer agent, With sCA particles, read-out: IC50 (mean ± SD), With sCA particles
[7] = 48 hours after addition of anticancer agent, Without sCA particles, read-out: IC50 (mean ± SD), Without sCA particles

Row | Compound | IC50 [1, 4] [µM] | IC50 [1, 5] [µM] | IC50 [1, 6] [µM] | IC50 [1, 7] [µM] | also measured
1 | CC(=O)O[C@@]12CO[C@@H]1C[C@H](O)[C@@]1(C)C(=O)[C@H](O)C3=C(C)[C@@H](OC(=O)[C@H](O)[C@@H](NC(=O)OC(C)(C)C)c4ccccc4)C[C@@](O)([C@@H](OC(=O)c4ccccc4)[C@H]21)C3(C)C [Docetaxel, docetaxel] | 0.00917 ± 0.00042 | 0.000353 ± 7e-05 |  |  | 
2 | N.N.[Cl][Pt][Cl] [Cisplatin, cisplatin] |  |  | 39.2 ± 2.7 | 31.3 ± 0.9 | 
3 | O=C1[O][Pt]2([NH][C@@H]3CCCC[C@H]3[NH]2)[O]C1=O [Oxaliplatin, oxaliplatin] |  |  | 31.3 ± 2.2 | 3.7 ± 1.1 | 
4 | O=c1[nH]cc(F)c(=O)[nH]1 [5-fluorouracil] | 74.6 ± 10 | 11.7 ± 2 |  |  | IC50 ([2]; HCT-116, 24 hours after addition of 5-fluorouracil, read-out: IC50 (mean ± SD), After 24 hr): 215 ± 141 µg/mL (≈ 1650 µM); IC50 ([2]; HCT-116, 48 hours after addition of 5-fluorouracil, read-out: IC50 (mean ± SD), After 48 hr): 4.07 ± 0.473 µg/mL (≈ 31.3 µM); IC50 ([2]; HCT-116, 72 hours after addition of 5-fluorouracil, read-out: IC50 (mean ± SD), After 72 hr): 2.64 ± 0.696 µg/mL (≈ 20.3 µM)
5 | COc1cccc2c1C(=O)c1c(O)c3c(c(O)c1C2=O)C[C@@](O)(C(=O)CO)C[C@@H]3O[C@H]1C[C@H](N)[C@H](O)[C@H](C)O1 [doxorubicin hydrochloride] |  |  |  |  | doxorubicin accumulated in the tumor (fluorescent imaging) [3]: only a small amount of doxorubicin was detected in the tumor
